Measured values taken from US20140350081A1, “INSECT G-COUPLED RECEPTORS USEFUL AS TARGETS FOR INSECTICIDES AND COMPOUNDS AND REAGENTS IDENTIFIED USING THE SAME” (priority 2011, published 2014).
Like-named read-outs stand apart in the source and are kept apart here.

Columns and labels:
Isdop2 [1] = molecular target: T1, Isdop2 (Ixodes scapularis, UniProt A0ACM8DGL0); experiment: cell-based; details: read-out: % Inhibition (of response to dopamine), Isdop2 screen
Ae. aegypti L3 larvae [2] = experiment: whole plant or invertebrate; details: Aedes aegypti
AaDOP2 [3] = molecular target: T2, AaDOP2 (Aedes aegypti, UniProt H6D5H2); experiment: HTRF cAMP accumulation concentration response assay (Cisbio Dynamic 2); format: cell-based; details: AaDOP2 expressing cells in the presence of dopamine; No Inhibition = <10% inhibition at 3 μM test compound; read-out: IC50 ± S.E.M. (nM), HTRF cAMP assay
AaDOP2 [4] = molecular target: T2, AaDOP2; experiment: LOPAC1280 antagonist screen in HEK-CRELuc-Aadop2 cells; format: cell-based; details: for % of the SCH23390 effect: 10 μM compound, 300 nM dopamine, quadruplicate; for % inhibition of DA activity (Aedes cell-based assay screen): LOPAC1280 screen hits
Ae. aegypti L3 larvae [5] = experiment: Ae. aegypti L3 concentration response and time course assays; format: in vivo, Aedes aegypti; details: for LT50: 400 μM, L3 larval time course assay
Description: Briefly, chemistries were diluted to appropriate concentration in water and added to the wells of 24-well plates containing 5 L3 stage Ae. aegypti larvae to achieve a final concentration of 400, 200, 100, 50 and 25 μM in 1 ml sterile RO water. Chemistries were tested in quadruplicate at each concentration. […] Results reported here represent a minimum of three independent CRC experiments (i.e., n=3).

[6] = test system: adult male Blatella germanica; experiment: Cockroach contact assay (topical application); format: in vivo; details: 200 mM compound
Excerpt: (§1) A series of whole organism bioassays was developed to further evaluate the toxicity of chemistries to a range of agricultural, veterinary and public health pests and non-target insects (Tables 12 and 13). These assays are designed to rapidly explore the biological activity spectrum of chemistries as well as to facilitate initial investigations of the mode of action of insecticidal compounds. Briefly, assays were developed for the German cockroach (Blatella germanica, urban pest), termite (Reticulitermes flavipes; urban pest), lone star tick (Amblyomma americana; veterinary and public health pest), soybean aphid (Aphis glycines, agricultural pest) and honeybee (Apis mellifera; beneficial, non-target insect). The assays were designed to test the toxicity and speed of kill of multiple chemistries on contact. Each of these assays was performed as a single point dose experiment in triplicate using either topical application of compound to the ventral thorax ([…]; 50-80 μg effective dose depending on compound) as is the case for our cockroach and honeybee assays, or 10 second immersion in a solution of the compound diluted in water or DMSO:EtOH to a final concentration of 100 μM. The assays were conducted in 24-well plate format with mortality assessment following incubation at 22° C. as described above. Commercial insecticides were incorporated in these assays to provide a positive control and permit initial comparative analyses. Lead chemistries identified in our in vivo screen have been evaluated in the cockroach and termite assays.

[7] = test system: adult male Blatella germanica; experiment: Cockroach assay of Table 16 (title contact assay, text feeding assay); format: in vivo; details: 200 mM compound
Excerpt: as §1

[8] = test system: adult Reticulitermes flavipes; experiment: Termite immersion assay; format: in vivo
Excerpt: A series of whole organism bioassays was developed to further evaluate the toxicity of chemistries to a range of agricultural, veterinary and public health pests and non-target insects (Tables 12 and 13). These assays are designed to rapidly explore the biological activity spectrum of chemistries as well as to facilitate initial investigations of the mode of action of insecticidal compounds. Briefly, assays were developed for the German cockroach (Blatella germanica, urban pest), termite (Reticulitermes flavipes; urban pest), lone star tick (Amblyomma americana; veterinary and public health pest), soybean aphid (Aphis glycines, agricultural pest) and honeybee (Apis mellifera; beneficial, non-target insect). The assays were designed to test the toxicity and speed of kill of multiple chemistries on contact. Each of these assays was performed as a single point dose experiment in triplicate using either topical application of compound to the ventral thorax (1 μl of a […] compound solution in 1:1 v:v DMSO:EtOH vehicle; 50-80 μg effective dose depending on compound) as is the case for our cockroach and honeybee assays, or 10 second immersion in a solution of the compound diluted in water or DMSO:[…] The assays were conducted in 24-well plate format with mortality assessment following incubation at 22° C. as described above. Commercial insecticides were incorporated in these assays to provide a positive control and permit initial comparative analyses. Lead chemistries identified in our in vivo screen have been evaluated in the cockroach and termite assays.

Isdop1 = Isdop1 (Ixodes scapularis, UniProt A0ACM8FJJ0); experiment: cAMP accumulation in HEK 293 cells transiently expressing Isdop1; format: cell-based; details: 10 μM biogenic amine, 300 nM propranolol, cAMP accumulation, mean±standard error
Isdop2 [9] = molecular target: T1, Isdop2; experiment: cAMP accumulation in HEK 293 cells transiently expressing Isdop2; format: cell-based; details: 10 μM biogenic amine, 300 nM propranolol, cAMP accumulation, mean±standard error
Ae. aegypti L3 larvae [10] = details: 400 μM, three independent experiments
[11] = 0.5 h, read-out: mortality of the mosquito population within 30 minutes, 400 μM, L3 larvae
[12] = 0.5 h, read-out: percent mortality 0.5 hr, 400 uM, L3 larvae, value for this scoring time
[13] = 1 h, read-out: percent mortality 1 hr, 400 uM, L3 larvae, per scoring time
[14] = 2 h, read-out: percent mortality 2 hr, 400 uM, L3 larvae, per scoring time
[15] = 3 h, read-out: percent mortality 3 hr, 400 uM, L3 larvae, per scoring time
[16] = 4 h, read-out: percent mortality 4 hr, 400 uM, L3 larvae, per scoring time
[17] = 24 h, read-out: percent mortality 24 hr, 400 uM, L3 larvae, per scoring time
[18] = 48 h, read-out: Toxicity to Aedes aegypti larvae (mortality) 48 hours, 400 μM, L3 larvae, three independent experiments
[19] = 48 h, read-out: percent mortality 48 hr, 400 uM, L3 larvae, per scoring time
[20] = 72 h, read-out: Cumulative % Mortality (72 hrs), 400 uM, L3 larvae
[21] = 72 h, read-out: Toxicity to Aedes aegypti larvae (mortality) 72 hours, 400 μM, L3 larvae, three independent experiments
[22] = 72 h, read-out: percent mortality 72 hr, 400 uM, L3 larvae, per scoring time
[23] = 100 mM compound (Fipronil 500 μM), immersion, adult termite

T2 sequence (H6D5H2 entry or part of it): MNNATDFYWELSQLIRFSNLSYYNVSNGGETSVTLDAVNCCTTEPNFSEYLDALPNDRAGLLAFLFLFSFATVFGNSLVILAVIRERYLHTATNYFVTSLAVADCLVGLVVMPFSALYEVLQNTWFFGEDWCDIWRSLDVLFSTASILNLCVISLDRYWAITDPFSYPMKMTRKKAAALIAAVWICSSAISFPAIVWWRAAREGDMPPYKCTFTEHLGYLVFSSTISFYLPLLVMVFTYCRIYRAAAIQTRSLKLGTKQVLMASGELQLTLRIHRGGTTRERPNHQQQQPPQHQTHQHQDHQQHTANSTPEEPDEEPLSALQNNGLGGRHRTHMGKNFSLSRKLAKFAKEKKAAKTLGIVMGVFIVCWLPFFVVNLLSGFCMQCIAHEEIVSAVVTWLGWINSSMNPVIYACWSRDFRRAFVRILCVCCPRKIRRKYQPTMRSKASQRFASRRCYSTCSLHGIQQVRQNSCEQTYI
T1 sequence (A0ACM8DGL0 entry or part of it): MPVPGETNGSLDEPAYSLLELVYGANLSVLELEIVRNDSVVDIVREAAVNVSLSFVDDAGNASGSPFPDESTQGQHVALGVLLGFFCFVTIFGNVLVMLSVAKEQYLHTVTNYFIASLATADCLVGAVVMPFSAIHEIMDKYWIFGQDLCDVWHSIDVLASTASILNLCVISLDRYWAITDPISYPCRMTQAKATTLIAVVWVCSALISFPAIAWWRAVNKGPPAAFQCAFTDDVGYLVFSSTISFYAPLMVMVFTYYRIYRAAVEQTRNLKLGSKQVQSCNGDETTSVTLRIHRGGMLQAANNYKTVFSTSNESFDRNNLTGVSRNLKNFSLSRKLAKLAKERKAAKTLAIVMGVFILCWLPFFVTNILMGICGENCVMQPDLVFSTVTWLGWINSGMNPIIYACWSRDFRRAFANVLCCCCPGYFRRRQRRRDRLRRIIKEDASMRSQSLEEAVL

| SMILES | inhibition at 10 µM (Isdop2 [1]) [%] | mortality at 400 µM (Ae. aegypti L3 larvae [2]; [12]) [%] | mortality at 400 µM (Ae. aegypti L3 larvae [2]; [13]) [%] | mortality at 400 µM (Ae. aegypti L3 larvae [2]; [14]) [%] | mortality at 400 µM (Ae. aegypti L3 larvae [2]; [15]) [%] | mortality at 400 µM (Ae. aegypti L3 larvae [2]; [16]) [%] | mortality at 400 µM (Ae. aegypti L3 larvae [2]; [17]) [%] | mortality at 400 µM (Ae. aegypti L3 larvae [2]; [18]) [%] | mortality at 400 µM (Ae. aegypti L3 larvae [2]; [19]) [%] | mortality at 400 µM (Ae. aegypti L3 larvae [2]; [20]) [%] | mortality at 400 µM (Ae. aegypti L3 larvae [2]; [21]) [%] | mortality at 400 µM (Ae. aegypti L3 larvae [2]; [22]) [%] | IC50 (AaDOP2 [3]) [nM] | Stimulatory response (fold-over-basal) Isdop1 (Isdop1) [fold-over-basal] | Stimulatory response (fold-over-basal) Isdop2 (Isdop2 [9]) [fold-over-basal] | Toxicity to Aedes aegypti larvae (mortality) 24 hours (Ae. aegypti L3 larvae [10]) [%] | other results |
| --- | --- | --- | --- | --- | --- | --- | --- | --- | --- | --- | --- | --- | --- | --- | --- | --- | --- |
| CCNC(=O)N1CCN(CCCC(c2ccc(F)cc2)c2ccc(F)cc2)CC1 [Amperozide, 4-[4,4-bis(4-fluorophenyl)butyl]-N-ethylpiperazine-1-carboxamide] | 69 | 90 | 0 | 0 | 0 | 0 | 0 | 93 | 0 | 100 | 93 | 0 | 570 ± 110 |  |  |  | mortality at 400 µM (Ae. aegypti L3 larvae [2]; [11]): > 70%; % of the SCH23390 effect (AaDOP2 [4]): 83%; % inhibition of DA activity (Aedes cell-based assay screen) (AaDOP2 [4]): 83%; LT50 (Ae. aegypti L3 larvae [5]): 42 min; % Mortality 24 hrs [6]: 0%; % Mortality 48 hrs [6]: 0%; % Mortality 72 hrs [6]: 0%; % Mortality 120 hrs [6]: 5%; % Mortality 240 hrs [6]: 5%; % Mortality 24 hrs [7]: 0%; % Mortality 48 hrs [7]: 0%; % Mortality 72 hrs [7]: 3%; % Mortality 120 hrs [7]: 7%; mortality of adult termites ([8]; in vivo): 70-100% |
| NCCc1c[nH]cn1 [Histamine] |  |  |  |  |  |  |  |  |  |  |  |  |  | 1.02 ± 0.10 | 1.55 ± 0.28 |  |  |
| N#Cc1nn(-c2c(Cl)cc(C(F)(F)F)cc2Cl)c(N)c1[S+]([O-])C(F)(F)F (stereo not drawn) [Fipronil] |  |  |  |  |  |  |  |  |  |  |  |  |  |  |  |  | % Mortality 24 hrs [8, 23]: 90%; % Mortality 48 hrs [8, 23]: 100%; % Mortality 72 hrs [8, 23]: 100%; % Mortality 120 hrs [8, 23]: 100%; % Mortality 240 hrs [8, 23]: 100% |
| NCCc1c[nH]c2ccc(O)cc12 [Serotonin, 5-hydroxytryptamine] |  |  |  |  |  |  |  |  |  |  |  |  |  | 1.06 ± 0.08 | 1.52 ± 0.20 |  |  |
| CN1C2CCC1CC(OC(c1ccccc1)c1ccccc1)C2 (stereo not drawn) [Benztropine, (3-endo)-3-(diphenylmethoxy)-8-methyl-8-azabicyclo[3.2.1]octane] | 84 | 0 | 0 | 20 | 0 | 0 | 40 | 100 | 0 | 100 | 100 | 0 |  |  |  | 100 |  |
| NCCc1ccc(O)cc1 [Tyramine] |  |  |  |  |  |  |  |  |  |  |  |  |  | 1.34 ± 0.11 | 1.27 ± 0.22 |  |  |
| CN1CCN(C2=Nc3ccccc3Oc3ccc(Cl)cc32)CC1 [Loxapine, 2-Chloro-11-(4-methylpiperazin-1-yl)dibenzo[b,f][1,4]oxazepine] | 93 | 30 | 0 | 30 | 0 | 0 | 0 | 100 | 0 | 100 | 100 | 0 |  |  |  | 97 | mortality at 400 µM (Ae. aegypti L3 larvae [2]; 3 h, read-out: mortality within three hours, 400 μM, L3 larvae): > 70%; % of the SCH23390 effect (AaDOP2 [4]): 97%; % inhibition of DA activity (Aedes cell-based assay screen) (AaDOP2 [4]): 97% |
| CN1CC2c3ccccc3Oc3ccc(Cl)cc3C2C1 (stereo not drawn) [Asenapine] |  | 70 | 20 | 10 | 0 | 0 | 0 | 100 | 0 | 100 | 100 | 0 | 0.3 ± 0.06 |  |  | 100 | mortality at 400 µM (Ae. aegypti L3 larvae [2]; [11]): > 70%; mortality at 400 µM (Ae. aegypti L3 larvae [2]; […], read-out: percent mortality […], 400 uM, L3 larvae, per scoring time): 0%; LT50 (Ae. aegypti L3 larvae [5]): 30 min; LC50 (Ae. aegypti L3 larvae [5]; Aedes aegypti): 40000 nM; % Mortality 24 hrs [6]: 5%; % Mortality 48 hrs [6]: 5%; % Mortality 72 hrs [6]: 10%; % Mortality 120 hrs [6]: 10%; % Mortality 240 hrs [6]: 10%; % Mortality 24 hrs [7]: 17%; % Mortality 48 hrs [7]: 20%; % Mortality 72 hrs [7]: 27%; % Mortality 120 hrs [7]: 27% |
| CN(C)CCCN1c2ccccc2CCc2ccc(Cl)cc21 [Clomipramine] | 84 |  |  |  |  |  |  | 93 |  |  | 93 |  |  |  |  | 70 | mortality at 400 µM (Ae. aegypti L3 larvae [2]; 24 h, read-out: Toxicity to Aedes aegypti larvae (mortality) 24 hours, 400 μM, L3 larvae, three independent experiments): 70 to 100% |
| CNCCCN1c2ccccc2CCc2ccc(Cl)cc21 [Norclomipramine] |  |  |  |  |  |  |  |  |  |  |  |  | 670 ± 35 |  |  | 40 | Toxicity to Aedes aegypti larvae (mortality) 48 hours (Ae. aegypti L3 larvae [10]): 63%; Toxicity to Aedes aegypti larvae (mortality) 72 hours (Ae. aegypti L3 larvae [10]): 70% |
